Source: patent US8598132B2, “Glycosylated indolocarbazoles, method for obtaining same and uses thereof” (Universidad de Oviedo, priority 2008, dated 2013)

Experiments:
[1] = target: T1, AurA (Homo sapiens, UniProt O14965); test: LabChip (Caliper) kinase assay, AurA; type: biochemical; conditions: for inhibition at 0.01 µM: compound at 10 nM; for inhibition at 0.01 µM / inhibition at 0.1 µM: read-out: remaining kinase activity (in %) / percentage of inhibition; for inhibition at 0.1 µM: compound at 100 nM; for IC50: ATP at Km, read-out: CI50 (the source's name)
T1 construct: purchased Carna Biosciences
T1 sequence (O14965 1-403): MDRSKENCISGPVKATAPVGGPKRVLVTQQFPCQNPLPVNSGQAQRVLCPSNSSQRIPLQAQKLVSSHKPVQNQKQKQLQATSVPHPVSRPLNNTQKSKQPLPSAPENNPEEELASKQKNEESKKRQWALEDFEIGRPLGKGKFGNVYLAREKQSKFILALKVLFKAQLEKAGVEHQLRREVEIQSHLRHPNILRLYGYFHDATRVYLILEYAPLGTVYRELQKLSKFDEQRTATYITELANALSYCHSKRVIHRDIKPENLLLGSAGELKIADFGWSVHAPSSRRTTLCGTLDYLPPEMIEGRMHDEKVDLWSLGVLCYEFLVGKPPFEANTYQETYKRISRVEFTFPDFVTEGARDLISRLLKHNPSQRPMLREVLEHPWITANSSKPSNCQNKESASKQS
Protocol: (§1) The analysis of kinase activity described here was performed using LabChip (Caliper Life Sciences), specifically the Caliper LC3000 and the EZ Reader II instruments.
(§2) The kinase assay used measures the conversion of a fluorescent peptide (substrate) to a phosphorylated product. The reaction mixture, in a microplate well, is introduced by a capillary in a chip where the non-phosphorylated substrate and the phosphorylated product are separated by […]. The intensity of the fluorescent signal over time is related to the reaction progress. The phosphorylated product migrates quicker than the non-phosphorylated substrate and the signals of the two forms of the peptide appear as differentiated peaks. The Caliper determines the peak height and calculates the ratio of product to the peak sum (P/(P+S)). This value is used to compare wells with compounds and wells with controls and thus determine the % of inhibition for the given product.
(§3) The followings kinases were used for the enzymatic inhibition studies, between brackets the value of the Michaelis-Menten constant, Km, of the ATP (Adenosine triphosphate) for each kinase, in μM: obtained from Carna Biosciences: MAPKAPK2 (4.6), AurA (3.6), AurB (5), PKCζ (3.8), RSK1 (23.3), PRAK (5), Erk1 (33.4), PKD2 (32.1), CK1d (16.3), CHK1 (33), ABL (61.7), FYN (36), LYNa (17), CHK2 (57.8), MET (79.5), LCK (28.5), SRC (38), GSK3β (7.3), Erk2 (62.1), PKACα (1.7), AKT2 (186.1), INSR (871.8), p38a (396.5), AKT1(48), MSK1 (21.2), PKCβ2 (84.8), ROCK2 (3.3), PIM2 (4.9), AMPK (38.6), KDR (164.8), IRAK4 (196.5), SGK1 (121.8), SYK (33.5); obtained from Invitrogen: CDK2 (57.6), BTK (123), HGK (80); obtained from Upstate: MST2 (36.6), PKGα (16), PAK2 (1.9), IGF1R (320), FGFR1 (171), MARK1 (33), CAMK2δ (22.4), c-TAK1 (66), DYRK1a (18.1), CaMK4 (3.9), FLT3 (350), c-Raf (6.2), P70S6K (95).
(§4) The compounds were dissolved in 100% DMSO and were diluted at 25 times the final concentration desired for the assay. In the case of the determination of Cl50, serial dilutions were made to reach eight concentrations and give rise to the inhibition curve. 1 μL of each concentration is transferred, in duplicate to a 384-well microplate. 12 μL of enzymatic buffer is added to each well containing purified kinase (several suppliers as indicated above), 100 mM HEPES, pH 7.5, 1 mM DTT (Calbiochem), 0.002% Brij-35 (Sigma) and also in presence of 10 mM MgCl2 as cofactor, except for INSR and IRAK4 wherein 10 mM MnCl2 is used instead of MgCl2. For the kinases CAMK26 and CAMK4, 1 mM CaCl2 and 6.7 μg/mL of calmodulin are also added. For KDR kinase, 0.05% of the CHAPSO detergent is added. For the c-Raf kinase, 10 mM MnCl2 is added. For PKCβ2 0.02 μg/mL of PS/PMA is added. For PKGα se 10 μM of cGMP (cyclic guanosine monophosphate) is added. The compound and the enzyme are left for 15 minutes preincubation and, then, the following are added to each well: 12 μL of peptide buffer/ATP containing 100 mM HEPES, pH 7.5, 1.5 μM peptide marker with fluorescein (specific for the corresponding kinase), ATP (at concentration KM), and 0.002% Brij-35 to start the reaction. Generally, the reactions are incubated for 1-1.5 h at ambient temperature to obtain an adequate conversion (15-40%) of the peptide to the phosphorylated product. The reactions were ended by the addition of 45 μL of buffer containing 0 mM EDTA. The microplates were read by the LabChip 3000 using a 12-channel LabChip. The P/(P+S) values were obtained as described above and the CI50 curves were generated using XIfit.
(§5) Table 9a has the 0150 data obtained in pairs of compound-kinase selected from the compounds of formula (VII), (VIII), (IX), (XVI), (XVII) and (XVIII) after taking inhibition measurements at 100 nM and 10 nM. Those couples that provide >70% of inhibition at 10 nM were consider for measuring its IC50. […]

[2] = target: JAK2 (Homo sapiens, UniProt O60674); test: LabChip (Caliper) kinase assay, JAK2; type: biochemical; conditions: for inhibition at 0.01 µM / inhibition at 0.1 µM: JAK2, read-out: remaining kinase activity (in %) / percentage of inhibition; for inhibition at 0.01 µM: compound at 10 nM; for inhibition at 0.1 µM: compound at 100 nM; for IC50: Jak2, ATP at Km, read-out: CI50 (the source's name)
Protocol: as §1, §2, §3, §4, §5

Sequence of JAK2 (O60674 whole entry, species assumed): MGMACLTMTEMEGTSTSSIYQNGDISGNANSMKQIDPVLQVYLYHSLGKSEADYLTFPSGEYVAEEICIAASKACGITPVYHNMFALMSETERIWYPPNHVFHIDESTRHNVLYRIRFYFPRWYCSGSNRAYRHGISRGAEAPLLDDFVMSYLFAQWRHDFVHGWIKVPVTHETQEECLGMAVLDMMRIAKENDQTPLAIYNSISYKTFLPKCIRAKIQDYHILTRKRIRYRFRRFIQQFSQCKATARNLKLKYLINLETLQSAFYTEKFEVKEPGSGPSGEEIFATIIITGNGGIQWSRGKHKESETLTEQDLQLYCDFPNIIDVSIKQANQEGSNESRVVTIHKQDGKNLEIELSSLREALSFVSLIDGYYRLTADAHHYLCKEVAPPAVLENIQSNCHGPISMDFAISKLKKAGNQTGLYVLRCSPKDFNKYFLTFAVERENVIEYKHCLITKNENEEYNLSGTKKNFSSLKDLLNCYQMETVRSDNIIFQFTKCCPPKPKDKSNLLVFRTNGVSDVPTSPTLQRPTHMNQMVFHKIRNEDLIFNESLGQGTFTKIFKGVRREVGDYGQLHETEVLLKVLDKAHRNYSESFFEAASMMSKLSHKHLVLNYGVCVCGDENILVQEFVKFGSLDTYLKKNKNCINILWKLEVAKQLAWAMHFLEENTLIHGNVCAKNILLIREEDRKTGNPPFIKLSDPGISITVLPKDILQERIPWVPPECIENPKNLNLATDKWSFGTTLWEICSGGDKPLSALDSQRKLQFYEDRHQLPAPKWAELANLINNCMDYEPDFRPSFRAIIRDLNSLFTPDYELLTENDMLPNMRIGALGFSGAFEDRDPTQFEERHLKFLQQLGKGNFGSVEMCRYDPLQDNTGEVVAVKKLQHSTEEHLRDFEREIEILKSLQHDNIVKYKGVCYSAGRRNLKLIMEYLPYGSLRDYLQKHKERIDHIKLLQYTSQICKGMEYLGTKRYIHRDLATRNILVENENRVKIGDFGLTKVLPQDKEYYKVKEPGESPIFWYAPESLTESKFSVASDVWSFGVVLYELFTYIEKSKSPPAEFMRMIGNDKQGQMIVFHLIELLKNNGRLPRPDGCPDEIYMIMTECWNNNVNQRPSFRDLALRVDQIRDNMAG

| SMILES | inhibition at 0.01 µM [1] | inhibition at 0.1 µM [1] | inhibition at 0.01 µM [2] | inhibition at 0.1 µM [2] | IC50 [1] | IC50 [2] |
| --- | --- | --- | --- | --- | --- | --- |
| C[C@@H]1O[C@@H](n2c3ccccc3c3c4c(c5c6ccccc6[nH]c5c32)C(=O)NC4=O)[C@H](O)[C@H](O)[C@H]1O [formula (III), N^13-1′-β-L-rhamnosylarcyriaflavin] | 0% | 5% | -3% | 33% |  |  |
| C[C@@H]1O[C@@H](n2c3ccccc3c3c4c(c5c6ccccc6[nH]c5c32)C(=O)NC4=O)C[C@H](O)[C@H]1O [formula (IV), N^13-1′-β-L-olivosylarcyriaflavin] | 4% | 19% | 19% | 74% |  |  |
| C[C@]12O[C@H](C[C@@H](O)[C@H]1O)n1c3ccccc3c3c4c(c5c6ccccc6n2c5c31)C(=O)NC4=O [formula (IX), N^12-5′(S)-N^13-1′-(R)-L-digitoxosylarcyriaflavin] |  |  |  |  | 6.7 nM | 1.2 nM |
| C[C@@H]1O[C@@H](n2c3ccccc3c3c4c(c5c6ccccc6[nH]c5c32)C(=O)NC4=O)C[C@@H](O)[C@H]1O [formula (V), N^13-1′-β-L-digitoxosylarcyriaflavin] | 4% | 22% | 23% | 65% |  |  |
| C[C@H]1O[C@@H](n2c3ccccc3c3c4c(c5c6ccccc6[nH]c5c32)C(=O)NC4=O)C[C@@H](O)[C@@H]1O [formula (VI), N^13-1′-β-D-olivosylarcyriaflavin] | 3% | 13% | 42% | 88% |  |  |
| C[C@]12O[C@H]([C@H](O)[C@H](O)[C@H]1O)n1c3ccccc3c3c4c(c5c6ccccc6n2c5c31)C(=O)NC4=O [formula (VII), N^12-5′(S)-N^13-1′-(R)-L-rhamnosylarcyriaflavin] |  |  |  |  | > 10 nM | 0.5 nM |
| C[C@]12O[C@H](C[C@H](O)[C@H]1O)n1c3ccccc3c3c4c(c5c6ccccc6n2c5c31)C(=O)NC4=O [formula (VIII), N^12-5′(S)-N^13-1′-(R)-L-olivosylarcyriaflavin] |  |  |  |  | > 10 nM | 0.74 nM |
| C[C@@H]1O[C@@H](n2c3ccccc3c3c4c(c5c6ccccc6[nH]c5c32)CNC4=O)[C@H](O)[C@H](O)[C@H]1O [formula (XII), N^13-1′-β-L-rhamnosyl-k252c] | 2% | 3% | 7% | 39% |  |  |
| C[C@@H]1O[C@@H](n2c3ccccc3c3c4c(c5c6ccccc6[nH]c5c32)CNC4=O)C[C@H](O)[C@H]1O [formula (XIII), N^13-1′-β-L-olivosyl-k252c] | 2% | 24% | 14% | 79% |  |  |
| C[C@@H]1O[C@@H](n2c3ccccc3c3c4c(c5c6ccccc6[nH]c5c32)CNC4=O)C[C@@H](O)[C@H]1O [formula (XIV), N^13-1′-β-L-digitoxosyl-k252c] | 1% | 5% | -4% | 25% |  |  |
| C[C@H]1O[C@@H](n2c3ccccc3c3c4c(c5c6ccccc6[nH]c5c32)CNC4=O)C[C@@H](O)[C@@H]1O [formula (XV), N^13-1′-β-D-olivosyl-k252c] | 3% | 20% | 37% | 89% |  |  |
| C[C@]12O[C@H]([C@H](O)[C@H](O)[C@H]1O)n1c3ccccc3c3c4c(c5c6ccccc6n2c5c31)CNC4=O [formula (XVI), N^12-5′(S)-N^13-1′-(R)-L-rhamnosyl-k252c] |  |  |  |  |  | 0.43 nM |
| C[C@]12O[C@H](C[C@H](O)[C@H]1O)n1c3ccccc3c3c4c(c5c6ccccc6n2c5c31)CNC4=O [formula (XVII), N^12-5′(S)-N^13-1′-(R)-L-olivosyl-k252c] |  |  |  |  | 5 nM | 0.57 nM |
| C[C@]12O[C@H](C[C@@H](O)[C@H]1O)n1c3ccccc3c3c4c(c5c6ccccc6n2c5c31)CNC4=O [formula (XVIII), N^12-5′(S)-N^13-1′-(R)-L-digitoxosyl-k252c] |  |  |  |  | > 10 nM | 0.53 nM |
